In patent US20190290710A1, “USE OF GLUC[…] TO ENHANCE RECOMBINANT ADENO-[…] YIELD” (priority 2016, published 2019):
Read-outs that look alike come from different tables or passages of the source.

Assays:
HeLa host cell line [1] = format: cell-based
Protocol: A number of cell culture additives including metals, trace supplements, salts, and others, were tested for their ability to increase production of recombinant adeno-associated virus vector (rAAV) by a HeLa host cell line.

HeLa host cell line [2] = assay: rAAV yield by qPCR, HeLa host cell line in shaker flasks, glucocorticoid analogs; format: cell-based; details: shaker flask, 0.1 and 1 μM, 4 days, FIG. 2
Protocol: FIG. 2 is a bar graph depicting the effect of glucocorticoid analogs on rAAV production from a HeLa producer cell line cultured in a shaker flask. Hydrocortisone (hydr), predinosolone (pred) and dexamethasone (dex) were added at the indicated concentrations and after 4 days rAAV yield (GC/ml) was measured by qPCR. Each value represents the mean of two independent experiments.
DNase-resistant particles (DRP) can be quantified by real-time quantitative polymerase chain reaction (qPCR) (DRP-qPCR) in a thermocycler (for example, an iCycler iQ 96-well block format thermocycler (Bio-Rad, Hercules, Calif.)). Samples containing rAAV particles are incubated in the presence of DNase I (100 U/ml; Promega, Madison, Wis.) at 37° C. for 60 min, followed by proteinase K (Invitrogen, Carlsbad, Calif.) digestion (10 U/ml) at 50° C. for 60 min, and then denatured at 95° C. for 30 min. The primer-probe set used should be specific to a non-native portion of the rAAV vector genome, for example, the poly(A) sequence of the protein of interest. […]
Stock solutions of dexamethasone (dex), prednisolone (pred), and hydrocortisone (hydr) dissolved in DMSO were added to the cell culture to final concentrations of 0.1 and 1 μM. After 4 days, rAAV yield was determined by measuring both the secreted (extracellular) and total rAAV in the cell culture harvest by qPCR.

Structure (SMILES): [Ca+2] [calcium]
- media precipitation (HeLa host cell line [1]; calcium concentrations higher than 0.19 g/L): causing media precipitation
- impact on rAAV yield (HeLa host cell line [1]; supplementation with 0.19 g/L of calcium): minimal impact

Structure (SMILES): [Cu] [copper]
- impact on rAAV yield (HeLa host cell line [1]; copper concentration increased from 0.1 μM to 10 μM): No or minimal impact

Structure (SMILES): C[C@]12CCC(=O)C=C1CC[C@@H]1[C@@H]2[C@@H](O)C[C@@]2(C)[C@H]1CC[C@]2(O)C(=O)CO [hydrocortisone]
- rAAV yield (extracellular and total) (HeLa host cell line [2]): increased rAAV yield

Structure (SMILES): [Fe] [iron]
- impact on rAAV yield (HeLa host cell line [1]; iron concentration increased from 0.1 mg/L to 10 mg/L): No or minimal impact

Structure (SMILES): [Mg+2] [magnesium]
- impact on rAAV yield (HeLa host cell line [1]; magnesium concentration increased from 1 mg/L to 30 mg/L): slightly negative impact

Structure (SMILES): C[C@]12C=CC(=O)C=C1CC[C@@H]1[C@@H]2[C@@H](O)C[C@@]2(C)[C@H]1CC[C@]2(O)C(=O)CO [prednisolone]
- rAAV yield (extracellular and total) (HeLa host cell line [2]): increased rAAV yield

Structure (SMILES): NCCCCN [putrescine]
- effect on rAAV yield (HeLa host cell line [1]): negative effect

Structure (SMILES): NCCCNCCCCNCCCN [spermine]
- effect on rAAV yield (HeLa host cell line [1]): negative effect
